Results as given in patent publication US20260008768A1, “UREA DERIVATIVES FOR INHIBITING NLRP3 AND USES THEREOF” (VENTUS THERAPEUTICS U.S., INC., priority 2023, published 2026).

Key:
human NLRP3 [1] = biological target: T1, human NLRP3 (Homo sapiens, UniProt Q96P20); assay: Scintillation Proximity (SPA) NLRP3 Assay, displacement of 3H-MCC950; format: binding; conditions: for IC50: displacement of 3H-MCC950 from human NLRP3
Outline: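 Human NLRP3 (350 nM) preincubated 15 min at RT with compound (5% DMSO final) in HEPES pH 7.5 buffer with 100 μM ADP, then 125 nM 3H-MCC950 added for 60 min. Copper PVT SPA beads added; counts read 6 h later. Specific binding = signal minus no-protein wells, duplicates averaged; IC50 reported.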

human NLRP3 [2] = biological target: T1, human NLRP3; assay: Human Whole Blood (hWB) NLRP3 Assay (LPS/ATP, IL-1β); format: cell-based; design: host or cells: human whole blood from healthy volunteers (A3)
Experimental: Human whole blood is drawn from healthy volunteers after obtaining written informed consent. Heparin lithium coated tubes are used to collect blood from volunteers. Blood samples are distributed on 96 well plates using 90 μl per well.
Priming procedure: Priming is performed by adding 5 μl of LPS (O26:B6; Sigma L-2654) at a final concentration of 1 μg/ml for 4.5 hours in a humidified incubator with 37° C., 5% CO2. Thirty minutes prior to NLRP3 activation, 5 μl of a 20× compound solution or vehicle (2% dimethylsulfoxide (DMSO)) is added to each well and plates were incubated on a shaker (450 rpm) in a humidified incubator with 37° C., 5% CO2.
Alternative priming procedure: Thirty minutes prior to LPS priming, 5 μl of a 20× compound solution or vehicle (2% dimethylsulfoxide (DMSO)) is added to each well and plates were incubated on a shaker (450 rpm) in a humidified incubator with 37° C., 5% CO2. Priming is performed by adding 5 μl of LPS (O26:B6; Sigma L-2654) at a final concentration of 1 μg/ml for 5 hours in a humidified incubator with 37° C., 5% CO2.
Activation is then performed by adding 3.3 μl of a 31×ATP solution per well. At the end of the 30 minutes stimulation, the plates are centrifuged (800 g, 10 min, room temperature) and the plasma from each well is frozen at −80° C. IL-1β levels in the supernatant were analyzed using a mesoscale discovery assay (MSD K151TUK) according to the manufacturers' instructions.
There is no detectable difference in assay results using the priming procedure versus the alternative priming procedure.
hWB NLRP3 IC50 assay results, as a measurement of whole blood potency, are provided in Table B. “A” activity=<1 uM; “B” activity=1-2 uM; “C” activity=>2-3 uM; “D” activity=>3 uM.

human NLRP3 [3] = biological target: T1, human NLRP3; assay: Human PBMC NLRP3 Assay (LPS priming, ATP stimulation, cytokine measurement); format: cell-based; design: host or cells: human PBMCs (A2); human whole blood from healthy volunteers (A3); conditions: for IC50: human PBMC, LPS + ATP
Experimental: Reagents: Human PBMCs (Normal): iXCells Cat #10HU-003; RPMI 1640 medium with GlutaMAX: ThermoFisher Cat #61870127 (Complete Media: 4.5 g/L D-glucose, 10% FBS, 100 mM NaPyr, 1% Pen/Strep, 10 mM HEPES and 0.05 mM of ®-mercaptoethanol; Assay Media: 4.5 g/L D-glucose, 100 mM NaPyr, 1% Pen/Strep, 10 mM HEPES and 0.05 mM of mercaptoethanol; 96-well V-bottom Plates: Costar Cat #3894; LPS (E. coli O26:B6): Sigma Cat #L2654, stock 5 mg/mL in PBS; ATP: Sigma Cat #A6419, prepared in a 250 mM stock in 1 M HEPES (adjusted to pH 7.4).
Cryopreserved PBMCs were rapidly thawed in a 37° C. water bath for 2 min. Cells were then centrifuged at 1200 RPM for 5 min and resuspended in ˜50 mL of fresh RPMI 1640 Complete Medium. A count was undertaken using a hemocytometer and adjusted to 2.5×10^5 cells/mL. V-shaped 96-well plates were seeded with 200 μL of PBMCs (5×10^4) per well and subsequently incubated overnight at 37° C. with 5% CO2. Assay Media was then prepared containing 100 ng/ml of LPS. PBMCs were then centrifuged at 1,200 RPM for 5 min, serum containing media was aspirated, and 150 μL/well of Assay Media+LPS was immediately added. Assay Media without LPS was added in the untreated control wells. Cells were then primed with LPS for 4 h at 37° C. with 5% CO2. A concentration response curve (CRC) was prepared of 1000× test compound in 100% DMSO. The CRC was then diluted 1:50 in Assay Media and then further diluted by 1:5× in Assay Media resulting in a final 4×CRC in 0.4% DMSO/Assay Media. 50 μL/well of 4× test compound CRC or vehicle (0.4% DMSO/Assay Media) was then transferred into each well and subsequently incubated for 30 min at 37° C. with 5% CO2. Cells were stimulated by adding 4 μL of 250 mM ATP, using a 250 mM stock prepared in 1 M Hepes without further dilution (for a final concentration of 5 mM), for 1 h at 37° C. with 5% CO2 Plates were then centrifuged at 1200 RPM for 5 min; and 50 μl of the media was transferred to a clean 96-well storage plate for cytokine measurements using the mesoscale platform, and stored at −80° C. until analyzed. Compounds were added 30 minutes before priming the cells with LPS when TNFα was required to be quantified in the cytokine panel to confirm selectivity.
PBMC NLRP3 IC50 assay results, as a measurement of cellular potency, are provided in Table B. “A” activity=<0.01 uM; “B” activity=0.01-0.1 uM; “C” activity=>0.1-0.5 uM; “D” activity=>0.5 uM.

[4] = relative to Comparative Example B1

T1 sequence (Q96P20 whole entry): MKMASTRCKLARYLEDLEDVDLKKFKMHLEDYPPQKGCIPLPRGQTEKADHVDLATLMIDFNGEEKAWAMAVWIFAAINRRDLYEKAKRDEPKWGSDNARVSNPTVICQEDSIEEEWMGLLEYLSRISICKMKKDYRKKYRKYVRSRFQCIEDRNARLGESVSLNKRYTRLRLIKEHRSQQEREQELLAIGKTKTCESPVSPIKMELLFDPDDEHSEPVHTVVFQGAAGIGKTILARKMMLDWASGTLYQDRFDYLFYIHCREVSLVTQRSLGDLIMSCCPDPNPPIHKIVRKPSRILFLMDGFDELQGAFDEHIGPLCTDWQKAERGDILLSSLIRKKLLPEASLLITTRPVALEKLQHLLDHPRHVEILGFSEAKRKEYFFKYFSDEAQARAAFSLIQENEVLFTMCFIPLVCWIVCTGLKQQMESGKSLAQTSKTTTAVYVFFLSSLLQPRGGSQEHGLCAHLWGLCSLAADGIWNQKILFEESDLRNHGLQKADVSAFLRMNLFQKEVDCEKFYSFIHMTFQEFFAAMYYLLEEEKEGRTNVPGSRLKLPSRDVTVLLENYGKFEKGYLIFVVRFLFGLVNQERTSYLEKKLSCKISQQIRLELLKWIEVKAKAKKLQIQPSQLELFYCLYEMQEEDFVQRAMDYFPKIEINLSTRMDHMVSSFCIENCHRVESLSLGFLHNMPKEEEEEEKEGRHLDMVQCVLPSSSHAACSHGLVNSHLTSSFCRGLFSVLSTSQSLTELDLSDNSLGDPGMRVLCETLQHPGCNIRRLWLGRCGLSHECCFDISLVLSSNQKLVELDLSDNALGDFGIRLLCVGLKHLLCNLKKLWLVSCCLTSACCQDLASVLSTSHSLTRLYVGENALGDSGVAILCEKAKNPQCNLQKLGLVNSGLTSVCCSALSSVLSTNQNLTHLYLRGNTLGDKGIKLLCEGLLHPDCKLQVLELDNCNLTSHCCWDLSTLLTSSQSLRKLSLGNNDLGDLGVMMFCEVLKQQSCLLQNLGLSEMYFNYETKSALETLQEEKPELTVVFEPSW

| Compound | IC50 (human NLRP3 [1]; Table B, activity class) [nM] | IC50 (human NLRP3 [2]; Table B, activity class) [nM] | IC50 (human NLRP3 [3]; Table B, activity class) [nM] | also measured |
| --- | --- | --- | --- | --- |
| C[C@@H]1CCN(c2nnn[nH]2)C[C@H](NC(=O)N(C)c2ccc(Cl)cc2F)C1 (single isomer, unassigned) [5A*] | < 1000 | < 1000 | < 10 | IC50 (human NLRP3 [1]; Table C): 71 nM; fold improvement in binding activity (SPA IC50) (human NLRP3 [1]; relative to Compound 27A*): > 19 fold; IC50 (human NLRP3 [2]; Table C): 36 nM; IC50 (human NLRP3 [3]; Table C): 4 nM |
| C[C@@H]1CCN(c2nnn[nH]2)C[C@H](NC(=O)N(C)c2ccc(C(F)(F)F)c(F)c2)C1 (single isomer, unassigned) [9A*] | < 1000 | – | 10 to 100 | – |
| C[C@@H]1CCN(c2nnn[nH]2)C[C@H](NC(=O)N(C)c2ccc(Cl)c(F)c2)C1 (single isomer, unassigned) [12A*] | < 1000 | 2000 to 3000 | 10 to 100 | – |
| C[C@@H]1CCN(c2nnn[nH]2)C[C@H](NC(=O)N(C)c2ccc(C(F)(F)F)cc2F)C1 (single isomer, unassigned) [13A*] | < 1000 | < 1000 | < 10 | IC50 (human NLRP3 [1]; Table C): 550 nM; IC50 (human NLRP3 [2]; Table C): 200 nM; IC50 (human NLRP3 [3]; Table C): 5.6 nM |
| C[C@@H]1CCN(c2nnn[nH]2)C[C@H](NC(=O)N(C)c2ccc(OC(F)(F)F)c(F)c2)C1 (single isomer, unassigned) [14A*] | < 1000 | 1000 to 2000 | 10 to 100 | – |
| C[C@@H]1CCN(c2nnn[nH]2)C[C@H](NC(=O)N(C)c2ccc(C(F)F)c(F)c2)C1 (single isomer, unassigned) [22A*] | < 1000 | 1000 to 2000 | – | – |
| C[C@@H]1CCN(c2nnn[nH]2)C[C@H](NC(=O)N(C)c2ccc(OC(F)(F)F)c(OC(F)F)c2)C1 (single isomer, unassigned) [25A*] | < 1000 | 1000 to 2000 | – | – |
| C[C@@H]1CCN(c2nnn[nH]2)C[C@H](NC(=O)N(C)c2cnc(C(F)(F)F)cn2)C1 (single isomer, unassigned) [32A*] | 10000 to 50000 | > 3000 | – | – |
| C[C@H]1CCN(c2nnn[nH]2)C[C@@H](NC(=O)N(C)c2ccc(OC(F)F)c(F)c2F)C1 (single isomer, unassigned) [40D*] | 1000 to 10000 | > 3000 | – | – |
| C[C@@H]1CCN(c2nnn[nH]2)C[C@H](NC(=O)N(CC2CC2)c2ccc(OC(F)(F)F)cc2)C1 (single isomer, unassigned) [44A*] | < 1000 | 2000 to 3000 | – | – |
| C[C@@H]1C[C@@H](NC(=O)N(C)c2ccc(OC(F)(F)F)cc2)[C@H]2CC[C@@H]1N2c1nnn[nH]1 (single isomer, unassigned) [45A*] | – | < 1000 | – | IC50 (human NLRP3 [1]; Table C): 110 nM; fold increase in binding activity (SPA IC50) (human NLRP3 [1]; relative to Compound 39A): > 12 fold; IC50 (human NLRP3 [2]; Table C): 420 nM |
| C[C@@H]1C[C@@H](NC(=O)N(C)c2ccc(C(F)(F)F)c(F)c2F)[C@H]2CC[C@@H]1N2c1nnn[nH]1 (single isomer, unassigned) [47A*] | < 1000 | 1000 to 2000 | – | – |
| C[C@@H]1C[C@@H](NC(=O)N(C)c2ccc(C(F)(F)F)cc2F)[C@H]2CC[C@@H]1N2c1nnn[nH]1 (single isomer, unassigned) [48A*] | < 1000 | < 1000 | – | – |
| C[C@@H]1C[C@@H](NC(=O)N(C)c2ccc(OC(F)(F)F)c(F)c2)[C@H]2CC[C@@H]1N2c1nnn[nH]1 (single isomer, unassigned) [51A*] | < 1000 | 1000 to 2000 | – | – |
| C[C@@H]1C[C@@H](NC(=O)N(C)c2ccc(C(F)F)cc2F)[C@H]2CC[C@@H]1N2c1nnn[nH]1 (single isomer, unassigned) [55A*] | < 1000 | < 1000 | – | – |
| C[C@@H]1C[C@@H](NC(=O)N(C)c2ccc(OC(F)(F)F)cc2F)[C@H]2CC[C@@H]1N2c1nnn[nH]1 (single isomer, unassigned) [56A*] | < 1000 | < 1000 | – | – |
| C[C@@H]1C[C@@H](NC(=O)N(C)c2ccc(OC(F)F)c(F)c2F)[C@H]2CC[C@@H]1N2c1nnn[nH]1 (single isomer, unassigned) [58A*] | – | < 1000 | – | – |
| C[C@@H]1C[C@@H](NC(=O)N(C)c2ccc(OC(F)(F)F)c(OC(F)F)c2)[C@H]2CC[C@@H]1N2c1nnn[nH]1 (single isomer, unassigned) [63A*] | < 1000 | 2000 to 3000 | – | – |
| CCN(C(=O)N[C@@H]1C[C@@H](C)[C@@H]2CC[C@H]1N2c1nnn[nH]1)c1ccc(OC(F)F)cc1F (single isomer, unassigned) [65A*] | < 1000 | < 1000 | – | – |
| O=C(Nc1ccc(Cl)cc1)Nc1cccc(-c2nnn[nH]2)c1 [Comparative Example B1, 1-(3-(1H-tetrazol-5-yl)phenyl)-3-(4-chlorophenyl)urea, reference compound] | – | – | – | IC50 (human NLRP3 [1]; Table C): 190000 nM; IC50 (human NLRP3 [3]; Table C): > 5000 nM |
| CN(C(=O)Nc1cccc(-c2nnn[nH]2)c1)c1ccc(Cl)cc1 [Comparative Example B2, 3-(3-(1H-tetrazol-5-yl)phenyl)-1-(4-chlorophenyl)-1-methylurea, reference compound] | – | – | – | IC50 (human NLRP3 [1]; Table C): 12500 nM; fold improvement in binding activity (SPA IC50) (human NLRP3 [1]; [4]): > 15 fold; IC50 (human NLRP3 [3]; Table C): 4200 nM |
| CN(C(=O)N[C@@H]1CCCN(c2nnn[nH]2)C1)c1ccc(Cl)cc1 [Compound 2A, (R)-3-(1-(1H-tetrazol-5-yl)piperidin-3-yl)-1-(4-chlorophenyl)-1-methylurea] | 1000 to 10000 | – | 100 to 500 | IC50 (human NLRP3 [1]; Table C): 9700 nM; fold improvement in binding activity (SPA IC50) (human NLRP3 [1]; [4]): > 19 fold; IC50 (human NLRP3 [3]; Table C): 268 nM; fold increase in potency as measured by PBMC IC50 (human NLRP3 [3]; relative to Comparative Example A*): > 350 fold; fold improvement in potency (PBMC IC50) (human NLRP3 [3]; [4]): > 18 fold; fold increase in potency as measured by PBMC IC50 (human NLRP3 [3]; relative to Comparative Example B2): > 15 fold; fold improvement in potency (PBMC IC50) (human NLRP3 [3]; relative to Comparative Example C1): 40 fold; fold improvement in potency (PBMC IC50) (human NLRP3 [3]; relative to Comparative Example C2): > 200 fold; fold increase in potency (PBMC IC50) (human NLRP3 [3]; relative to Comparative Example D1): 146 fold; fold increase in potency (PBMC IC50) (human NLRP3 [3]; relative to Comparative Example D2): > 350 fold; fold increase in potency (PBMC IC50) (human NLRP3 [3]; relative to Comparative Example F): 58 fold; fold increase in potency (PBMC IC50) (human NLRP3 [3]; relative to Comparative Example G): > 350 fold; fold increase in potency (PBMC IC50) (human NLRP3 [3]; relative to Comparative Example H): 39 fold; fold increase in potency (PBMC IC50) (human NLRP3 [3]; relative to Comparative Example J1): > 350 fold; fold increase in potency (PBMC IC50) (human NLRP3 [3]; relative to Comparative Example J2): > 350 fold |
| CCN(C(=O)N[C@@H]1C[C@H](C)CN(c2nnn[nH]2)C1)c1ccc(Cl)cc1 [Compound 6A, 1-(4-chlorophenyl)-1-ethyl-3-((3R,5S)-5-methyl-1-(1H-tetrazol-5-yl)piperidin-3-yl)urea] | < 1000 | – | 10 to 100 | – |
